Test results published in patent US20100239655A1, “TAURINE-BASED COMPOSITIONS AND THERAPEUTIC METHODS” (priority 2004, published 2010).

Test system: normal human epidermal keratinocytes
Experiment: Protection of keratinocytes from ultraviolet induced cell death (apoptosis)
Type: cell-based
Settings: even at micromolar concentrations
Source text: This effect is independent from and in addition to, the skin barrier repair and hydrating effects taurine exerts on dermal cells.

## NCCS(=O)(=O)O [taurine, Taurine]
  protection from ultraviolet induced cell death (apoptosis): can protect
